In publication PMC6594753, “Cystic fibrosis drug ivacaftor stimulates CFTR channels at picomolar concentrations” (eLife, 2019):

Molecular target: T1, WT CFTR (Homo sapiens, UniProt P13569)
T1 construct: expressed in transfected cells; host or cells: Xenopus laevis oocytes injected with cRNA transcribed from pGEMHE-CFTR
Assay: Single-channel recording in excised inside-out patches, kinetic analysis of microscopic patches
Type: biochemical
Protocol: Patch pipette solution contained (in mM): 136 NMDG-Cl, 2 MgCl2, 5 HEPES, pH = 7.4 with NMDG. Bath solution contained (in mM): 134 NMDG-Cl, 2 MgCl2, 5 HEPES, 0.5 EGTA, pH = 7.1 with NMDG. MgATP (2 mM) was added from a 400 mM aqueous stock solution (pH = 7.1 with NMDG). Before each experiment 300 nM catalytic subunit of PKA (Sigma-Aldrich Kft., Budapest, Hungary) was applied for ~1 min to phosphorylate CFTR channels. Vx-770 (Selleck Chemicals) was diluted into the bath solution either from a ‘1x saturated’ aqueous stock solution (see above, concentration ~62 nM), or from a commercially obtained 10 mM stock dissolved in DMSO (Selleck Chemicals). Following patch excision the patch pipette was moved into a flow chamber, and recordings were done under continuous superfusion of the cytosolic patch surface. Solution compositions were exchanged using computer-driven electronic valves (solution exchange time constant <50 ms). After each recording day perfusion tubings were extensively washed with distilled water. Although supersaturated solutions of Vx-770 were not employed here, any perfusion tubing that had ever been in contact with a given concentration of Vx-770 was subsequently used only for solutions that contained the same, or higher, concentrations of the drug. After every 5–6 experimental days the entire perfusion system was replaced. Currents were recorded at 25°C, at a membrane potential of −40 mV, digitized at 10 kHz, Gaussian-filtered at 2 kHz, and recorded to disk (Axopatch 200B, Digidata 1322A, Pclamp9 (Molecular Devices, RRID: SCR_011323)). For display purposes, currents are shown filtered at 10 Hz and sampled at 20 Hz, and expanded single-channel traces (Figure 2b, Figure 4d) are shown filtered at 50 Hz and sampled at 250 Hz.
Segments of current recording originating from 1 to 7 active channels were digitally filtered at 50 Hz, and idealized by half-amplitude threshold crossing. Steady-state open probabilities in 2 mM ATP, before or during application of Vx-770 or after its removal (Figure 2c), were calculated from the events lists as the time-average of the fraction of open channels. A closed-open-blocked (C-O-B) kinetic scheme, which separates brief (~10 ms) flickery closures (to state B) from long (~1 s) interburst closures (to state C), was fitted by maximum likelihood to the set of dwell-time histograms for all conductance levels, to obtain microscopic transition rates rCO, rOC, rOB, and rBO, while accounting for a fixed dead time of 6 ms ([Csanády, 2000]). The software is freely available upon request. Mean burst (τb) and interburst (τib) durations were calculated as τb=(1/rOC)(1 + rOB/rBO) and τib=1/rCO, and channel opening and closing rates (Figure 2c) defined as 1/τib and 1/τb, respectively. […]

[1] = single channel, 0.05x saturated (~3 nM) Vx-770

T1 sequence (P13569 whole entry): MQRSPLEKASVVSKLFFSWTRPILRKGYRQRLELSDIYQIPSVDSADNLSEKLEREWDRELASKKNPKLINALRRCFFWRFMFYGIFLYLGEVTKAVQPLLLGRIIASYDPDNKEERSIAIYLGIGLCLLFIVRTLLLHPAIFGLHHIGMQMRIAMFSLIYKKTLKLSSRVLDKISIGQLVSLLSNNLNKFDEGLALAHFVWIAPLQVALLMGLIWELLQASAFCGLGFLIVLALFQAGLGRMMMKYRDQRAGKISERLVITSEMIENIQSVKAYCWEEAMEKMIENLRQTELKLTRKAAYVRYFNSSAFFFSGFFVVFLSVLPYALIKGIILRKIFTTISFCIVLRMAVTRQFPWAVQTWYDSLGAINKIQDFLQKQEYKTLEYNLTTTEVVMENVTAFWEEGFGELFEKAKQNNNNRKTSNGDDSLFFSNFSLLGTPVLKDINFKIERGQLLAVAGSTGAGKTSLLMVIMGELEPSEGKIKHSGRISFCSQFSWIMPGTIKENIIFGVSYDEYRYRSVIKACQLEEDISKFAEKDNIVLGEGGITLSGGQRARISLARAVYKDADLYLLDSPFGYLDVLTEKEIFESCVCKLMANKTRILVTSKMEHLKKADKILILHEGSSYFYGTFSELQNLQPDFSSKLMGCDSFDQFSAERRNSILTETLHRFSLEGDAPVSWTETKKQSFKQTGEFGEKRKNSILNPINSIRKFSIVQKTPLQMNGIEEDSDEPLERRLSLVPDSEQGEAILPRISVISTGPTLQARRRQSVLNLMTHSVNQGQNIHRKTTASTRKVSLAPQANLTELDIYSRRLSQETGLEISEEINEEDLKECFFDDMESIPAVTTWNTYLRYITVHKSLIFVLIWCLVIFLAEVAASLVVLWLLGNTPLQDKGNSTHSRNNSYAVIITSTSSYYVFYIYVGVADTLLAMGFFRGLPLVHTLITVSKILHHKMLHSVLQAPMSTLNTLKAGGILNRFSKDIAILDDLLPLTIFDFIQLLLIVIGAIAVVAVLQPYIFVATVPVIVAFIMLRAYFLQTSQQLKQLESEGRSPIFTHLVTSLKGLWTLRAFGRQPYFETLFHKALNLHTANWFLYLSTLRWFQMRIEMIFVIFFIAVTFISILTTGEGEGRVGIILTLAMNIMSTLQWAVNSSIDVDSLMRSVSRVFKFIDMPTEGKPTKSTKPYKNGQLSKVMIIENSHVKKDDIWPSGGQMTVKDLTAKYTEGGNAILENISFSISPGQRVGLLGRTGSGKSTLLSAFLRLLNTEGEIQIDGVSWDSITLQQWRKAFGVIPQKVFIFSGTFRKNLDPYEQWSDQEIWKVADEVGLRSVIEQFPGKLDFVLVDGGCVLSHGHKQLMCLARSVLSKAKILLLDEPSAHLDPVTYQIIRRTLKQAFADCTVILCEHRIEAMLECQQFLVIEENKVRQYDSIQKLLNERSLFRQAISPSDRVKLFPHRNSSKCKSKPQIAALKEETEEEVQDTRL

- stimulation of open probability (0.05x saturated (~3 nM) Vx-770 (20-fold dilution of 1x stock), 2 mM ATP): ~ 4 fold
- reversibility of effects on channel gating (following washout of 0.05x saturated Vx-770): fully reversible
- time of switch back to low-activity gating after drug removal [1]: ~ 5 min
- time of switch from low- to high-activity gating after initiation of drug exposure [1]: ~ 3 min
Structure (SMILES): CC(C)(C)c1cc(C(C)(C)C)c(NC(=O)c2c[nH]c3ccccc3c2=O)cc1O [Vx-770, ivacaftor]
